Measured values: patent US10870652B2, “Compounds and methods for modulating bruton's tyrosine kinase” (CORVUS PHARMACEUTICALS, INC., priority 2016, dated 2020)

What was measured:
Type in all cases: biochemical
BTK = BTK (Homo sapiens, UniProt Q06187); experiment: BTK IC50 kinase inhibition assay
JAK3 = target: T1, JAK3 (Homo sapiens, UniProt P52333); experiment: JAK3 IC50 kinase inhibition assay
T1 sequence (P52333 1-1124): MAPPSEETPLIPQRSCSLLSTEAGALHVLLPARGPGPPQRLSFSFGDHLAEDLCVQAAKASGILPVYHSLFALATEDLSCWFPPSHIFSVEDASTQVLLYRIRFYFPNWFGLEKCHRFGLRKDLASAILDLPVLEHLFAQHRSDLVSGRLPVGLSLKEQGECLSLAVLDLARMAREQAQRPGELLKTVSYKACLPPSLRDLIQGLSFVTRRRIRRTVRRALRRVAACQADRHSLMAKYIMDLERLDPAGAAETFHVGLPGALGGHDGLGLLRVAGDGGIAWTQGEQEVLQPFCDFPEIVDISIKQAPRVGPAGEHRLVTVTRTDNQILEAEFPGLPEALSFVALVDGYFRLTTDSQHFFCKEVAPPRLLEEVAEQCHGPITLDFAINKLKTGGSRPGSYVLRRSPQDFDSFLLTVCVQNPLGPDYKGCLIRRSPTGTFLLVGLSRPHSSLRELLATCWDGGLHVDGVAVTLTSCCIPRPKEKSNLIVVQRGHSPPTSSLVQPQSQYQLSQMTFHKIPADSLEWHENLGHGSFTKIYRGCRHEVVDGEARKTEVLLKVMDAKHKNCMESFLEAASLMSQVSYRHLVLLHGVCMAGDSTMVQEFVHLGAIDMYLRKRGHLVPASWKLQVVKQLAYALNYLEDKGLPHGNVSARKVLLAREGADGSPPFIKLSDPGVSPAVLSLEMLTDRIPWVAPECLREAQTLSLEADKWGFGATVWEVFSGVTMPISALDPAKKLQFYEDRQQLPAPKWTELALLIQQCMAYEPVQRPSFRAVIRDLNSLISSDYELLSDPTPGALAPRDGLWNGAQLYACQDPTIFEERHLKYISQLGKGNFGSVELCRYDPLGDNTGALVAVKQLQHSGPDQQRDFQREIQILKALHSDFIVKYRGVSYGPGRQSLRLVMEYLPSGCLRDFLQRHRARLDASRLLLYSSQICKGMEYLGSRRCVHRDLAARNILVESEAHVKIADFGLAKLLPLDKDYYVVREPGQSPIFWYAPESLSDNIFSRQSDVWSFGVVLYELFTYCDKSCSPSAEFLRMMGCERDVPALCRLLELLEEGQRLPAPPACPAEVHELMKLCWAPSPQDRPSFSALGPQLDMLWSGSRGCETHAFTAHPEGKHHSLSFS

TXK = target: T2, TXK (Homo sapiens, UniProt P42681); experiment: TXK IC50 kinase inhibition assay
T2 sequence (P42681 1-527): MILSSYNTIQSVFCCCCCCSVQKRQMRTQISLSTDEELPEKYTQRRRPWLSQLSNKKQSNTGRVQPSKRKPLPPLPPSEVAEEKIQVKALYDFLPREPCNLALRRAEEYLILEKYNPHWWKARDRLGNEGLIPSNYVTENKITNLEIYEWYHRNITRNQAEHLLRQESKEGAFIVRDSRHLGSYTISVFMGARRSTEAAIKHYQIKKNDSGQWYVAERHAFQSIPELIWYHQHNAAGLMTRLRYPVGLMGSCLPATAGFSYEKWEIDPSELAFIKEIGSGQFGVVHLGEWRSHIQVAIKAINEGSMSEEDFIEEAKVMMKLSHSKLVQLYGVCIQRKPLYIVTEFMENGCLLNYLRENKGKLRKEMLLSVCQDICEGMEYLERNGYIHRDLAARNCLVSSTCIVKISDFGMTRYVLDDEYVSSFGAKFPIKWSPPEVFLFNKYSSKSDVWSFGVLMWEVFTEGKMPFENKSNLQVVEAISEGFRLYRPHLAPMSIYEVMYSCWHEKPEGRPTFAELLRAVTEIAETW

ITK = target: T3, ITK (Homo sapiens, UniProt Q08881); experiment: ITK IC50 kinase inhibition assay
T3 sequence (Q08881 1-620): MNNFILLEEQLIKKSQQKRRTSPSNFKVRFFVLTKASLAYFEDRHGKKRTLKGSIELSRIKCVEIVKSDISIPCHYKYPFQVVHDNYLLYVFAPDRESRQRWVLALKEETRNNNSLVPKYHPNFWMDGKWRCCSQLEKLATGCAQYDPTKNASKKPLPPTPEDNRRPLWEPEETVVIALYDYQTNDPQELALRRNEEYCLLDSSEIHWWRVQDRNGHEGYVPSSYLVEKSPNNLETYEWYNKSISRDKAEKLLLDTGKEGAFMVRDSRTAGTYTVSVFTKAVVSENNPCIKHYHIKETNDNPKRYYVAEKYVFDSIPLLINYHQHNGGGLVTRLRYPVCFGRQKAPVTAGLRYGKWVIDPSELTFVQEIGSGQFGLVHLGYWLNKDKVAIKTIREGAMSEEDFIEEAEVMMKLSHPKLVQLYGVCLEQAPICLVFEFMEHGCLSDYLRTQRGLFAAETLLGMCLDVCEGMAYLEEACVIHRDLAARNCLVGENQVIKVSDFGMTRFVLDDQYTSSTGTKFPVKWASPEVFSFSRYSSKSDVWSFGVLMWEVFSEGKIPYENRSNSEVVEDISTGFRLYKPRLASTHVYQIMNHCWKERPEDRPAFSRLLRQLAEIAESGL

BTK, sequence (Q06187 whole entry): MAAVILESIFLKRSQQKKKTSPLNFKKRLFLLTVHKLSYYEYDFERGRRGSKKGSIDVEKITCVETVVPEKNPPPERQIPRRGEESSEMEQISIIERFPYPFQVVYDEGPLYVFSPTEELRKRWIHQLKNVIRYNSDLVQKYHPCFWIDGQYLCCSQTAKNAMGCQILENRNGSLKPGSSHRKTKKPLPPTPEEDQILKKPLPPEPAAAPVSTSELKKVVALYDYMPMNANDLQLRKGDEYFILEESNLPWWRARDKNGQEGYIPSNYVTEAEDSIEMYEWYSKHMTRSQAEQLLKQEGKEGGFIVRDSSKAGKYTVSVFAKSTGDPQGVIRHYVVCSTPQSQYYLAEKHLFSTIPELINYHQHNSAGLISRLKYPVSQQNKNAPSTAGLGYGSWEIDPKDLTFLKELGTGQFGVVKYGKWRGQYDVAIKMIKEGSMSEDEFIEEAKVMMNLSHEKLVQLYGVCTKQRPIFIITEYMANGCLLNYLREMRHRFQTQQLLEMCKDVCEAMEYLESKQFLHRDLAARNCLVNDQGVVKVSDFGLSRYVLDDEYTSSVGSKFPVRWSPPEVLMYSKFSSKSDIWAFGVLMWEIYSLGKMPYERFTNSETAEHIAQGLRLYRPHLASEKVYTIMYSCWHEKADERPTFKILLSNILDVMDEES

SMILES | IC50 (BTK) [nM] | IC50 (JAK3) [nM] | IC50 (TXK) [nM] | IC50 (ITK) [nM]
C=CC(=O)N1CC(Cn2nc(-c3ccc(Oc4ccccc4)cc3)c3cncnc32)C1 [Compound A35, 1-(3-((3-(4-phenoxyphenyl)-1H-pyrazolo[3,4-d]pyrimidin-1-yl)methyl)azetidin-1-yl)prop-2-en-1-one] | < 100 | > 500 | 100 to 500 | > 500
C=CC(=O)N1CC[C@@H](c2nc(-c3ccc(Oc4ccccc4)cc3)c3cnccn23)C1 [Compound A30, (R)-1-(3-(1-(4-phenoxyphenyl)imidazo[1,5-a]pyrazin-3-yl)pyrrolidin-1-yl)prop-2-en-1-one] | < 100 | > 500 | < 100 | > 500
C=CC(=O)N1CCC[C@@H](n2nc(-c3ccc(Oc4ccccc4F)cc3)c3cncnc32)C1 [Compound A40, (R)-1-(3-(3-(4-(2-fluorophenoxy)phenyl)-1H-pyrazolo[3,4-d]pyrimidin-1-yl)piperidin-1-yl)prop-2-en-1-one] | < 100 | > 500 | < 100 | > 500
C=CC(=O)N1CC[C@@H](Cn2nc(-c3ccc(Oc4ccccc4)cc3)c3cncnc32)C1 [Compound A14, (R)-1-(3-((3-(4-phenoxyphenyl)-1H-pyrazolo[34-d]pyrimidin-1-yl)methyl)pyrrolidin-1-yl)prop-2-en-1-one] | 100 to 500 | > 500 | 100 to 500 | > 500
CC#CC(=O)N1CC(Cn2nc(-c3ccc(Oc4ccccc4)cc3)c3cncnc32)C1 [Compound A58, 1-(3-((3-(4-phenoxyphenyl)-1H-pyrazolo[3,4-d]pyrimidin-1-yl)methyl)azetidin-1-yl)but-2-yn-1-one] | > 500 | > 500 | > 500 | > 500
C=CC(=O)N1CCC[C@@H](n2nc(-c3ccc(Oc4ccccc4)cc3F)c3cnccc32)C1 [Compound A24, (R)-1-(3-(3-(2-fluoro-4-phenoxyphenyl)-1H-pyrazolo[4,3-c]pyridin-1-yl)piperidin-1-yl)prop-2-en-1-one] | < 100 | > 500 | < 100 | > 500
CN(C)CC#CC(=O)N1CC2(CC(n3nc(-c4ccc(Oc5ccccc5)cc4)c4cncnc43)C2)C1 [Compound A75, 4-(dimethylamino)-1-(6-(3-(4-phenoxyphenyl)-1H-pyrazolo[3,4-d]pyrimidin-1-yl)-2-azaspiro[3.3]heptan-2-yl)but-2-yn-1-one] | < 100 | 100 to 500 | < 100 | 100 to 500
C=CC(=O)N1CCC[C@@H](n2nc(-c3ccc(Oc4ccccc4)cc3C)c3cncnc32)C1 [Compound A4, (R)-1-(3-(3-(2-methyl-4-phenoxyphenyl)-1H-pyrazolo[3,4-d]pyrimidin-1-yl)piperidin-1-yl)prop-2-en-1-one] | < 100 | > 500 | < 100 | > 500
C=CC(=O)N1CCC[C@H]1Cn1nc(-c2ccc(Oc3cccc(C)c3)cc2)c2cncnc21 [Compound A48, (S)-1-(2-((3-(4-(m-tolyloxy)phenyl)-1H-pyrazolo[3,4-d]pyrimidin-1-yl)methyl)pyrrolidin-1-yl)prop-2-en-1-one] | < 100 | > 500 | < 100 | > 500
C=CC(=O)N[C@H]1CC[C@H](n2nc(-c3ccc(Oc4ccccc4)cc3)c3cncnc32)CC1 [Compound A56, N-((1r,4r)-4-(3-(4-phenoxyphenyl)-1H-pyrazolo[3,4-d]pyrimidin-1-yl)cyclohexyl)acrylamide] | > 500 | > 500 | > 500 | > 500
C=CC(=O)Nc1ccccc1Cn1nc(-c2ccc(Oc3ccccc3)cc2)c2cncnc21 [Compound A38, N-(2-((3-(4-phenoxyphenyl)-1H-pyrazolo[3,4-d]pyrimidin-1-yl)methyl)phenyl)acrylamide] | < 100 | > 500 | < 100 | > 500
C=CC(=O)N1CC[C@H](n2nc(-c3ccc(Oc4ccccc4)cc3)c3cncnc32)C1 [Compound A12, (S)-1-(3-(3-(4-phenoxyphenyl)-1H-pyrazolo[3,4-d]pyrimidin-1-yl)pyrrolidin-1-yl)prop-2-en-1-one] | < 100 | > 500 | 100 to 500 | > 500
C=CC(=O)N1CC[C@@H](n2nc(-c3ccc(Oc4ccccc4)cc3)c3cncnc32)C1 [Compound A6, (R)-1-(3-(3-(4-phenoxyphenyl)-1H-pyrazolo[3,4-d]pyrimidin-1-yl)pyrrolidin-1-yl)prop-2-en-1-one] | < 100 | > 500 | < 100 | > 500
C=CC(=O)N1CCC[C@@H](n2nc(-c3ccc(Oc4cccc(F)c4)cc3)c3cncnc32)C1 [Compound A39, (R)-1-(3-(3-(4-(3-fluorophenoxy)phenyl)-1H-pyrazolo[3,4-d]pyrimidin-1-yl)piperidin-1-yl)prop-2-en-1-one] | < 100 | > 500 | < 100 | > 500
C=CC(=O)N1CCC[C@@H](c2nc(-c3ccc(Oc4ccccc4)cc3)c3cnccn23)C1 [Compound A28, (R)-1-(3-(1-(4-phenoxyphenyl)imidazo[1,5-a]pyrazin-3-yl)piperidin-1-yl)prop-2-en-1-one] | < 100 | > 500 | < 100 | > 500
CC#CC(=O)N[C@H]1C[C@H](n2nc(-c3ccc(Oc4ccccc4)cc3)c3cncnc32)C1 [Compound A69, N-((1r,3r)-3-(3-(4-phenoxyphenyl)-1H-pyrazolo[3,4-d]pyrimidin-1-yl)cyclobutyl)but-2-ynamide] | < 100 | > 500 | > 500 | > 500
C=CC(=O)N1CC[C@H](Cn2nc(-c3ccc(Oc4ccccc4)cc3)c3cncnc32)C1 [Compound A15, (S)-1-(3-((3-(4-phenoxyphenyl)-1H-pyrazolo[3,4-d]pyrimidin-1-yl)methyl)pyrrolidin-1-yl)prop-2-en-1-one] | < 100 | > 500 | 100 to 500 | > 500
C=CC(=O)N1CCC[C@@H](n2nc(-c3ccc(Oc4ccccc4)c(F)c3)c3cncnc32)C1 [Compound A3, (R)-1-(3-(3-(3-fluoro-4-phenoxyphenyl)-1H-pyrazolo[3,4-d]pyrimidin-1-yl)piperidin-1-yl)prop-2-en-1-one] | < 100 | > 500 | < 100 | > 500
